The source of these data is patent US20130288331A1, “PEPTIDOMIMETIC COMPOUNDS AND RELATED METHODS” (priority 2012, published 2013).

Test [1] deals with T1, HIV-1 protease (Human immunodeficiency virus type 1 group M subtype B, UniProt P04585). As to the kind of experiment: FRET assay of HIV-1 protease inhibitory activity (IC50). It is filed as biochemical. Particulars: for IC50: HIV-1 protease 10.2 nM, 15 min preincubation at 25° C., EDANS/DABCYL substrate for C-protected, HiLyte Fluor 488/QXL 520 substrate for deprotected inhibitors. On the procedure: The HIV-1 protease inhibitory activities of the compounds were determined by a FRET method. HIV-1 protease stock solution was diluted with assay buffer (0.1M sodium acetate, 1.0 M sodium chloride, 1.0 mM EDTA, 1.0 mM DTT, 10% DMSO, and 1.0 mg/mL BSA, pH 4.7). All inhibitors were dissolved in DMSO, and diluted to appropriate concentrations with deionized water such that the maximum conc. of DMSO in the buffer was 8.5%. EDANS/DABCYL-based FRET peptide substrate (Ex/Em=340/490 nm) solution in SensoLyte® 490 HIV Protease Assay Kit (Cat. #71127) and HiLyte Fluor™ 488/QXL™ 520-based FRET peptide substrate (Ex/Em=490/520 nm) solution in SensoLyte® 520 HIV Protease Assay Kit (Cat. #71147) were purchased from Anaspec. We needed to use these two different substrates because the compounds without C-protection (throughout this means protection on the oxygen at the C-terminus, a terminal OH) have weak fluorescence that interferes with that from the EDANS/DABCYL-based FRET peptide substrate (Ex/Em=340/490 nm) so an alternative substrate was used.
For the determination of IC50 values, HIV-1 protease (40 μL, 10.2 nM final concentration) and inhibitors (10 μL) were incubated for 15 min at 25° C. Substrate solutions (50 μL) in the buffer were added into the incubated solution to initiate the reaction. EDANS/DABCYL-based FRET peptide substrate was used for C-protected inhibitors, and HiLyte Fluor™ 488/QXL™ 520-based FRET peptide substrate was used for deprotected inhibitors. The total assay volume was 100 μL. Fluorescence was monitored for 5 min at 30° C. in a fluorescence microplate reader (BioTek) at Ex/Em=340/490 nm for ^tBu-protected inhibitors, and Ex/Em=490/520 nm for deprotected inhibitors. The initial velocities were plotted against log [inhibitor] and a sigmoidal curve was fitted to the data points using Graphpad Prism 5 software to obtain IC50 values.

For test [2], the target named is T1, HIV-1 protease. The test can be described thus: Zhang-Poorman kinetic assay of HIV-1 protease dimerization inhibition. To be noted: for Ki: calculated from y-intercepts using the Zhang-Poorman equation, HIV-1 protease 0.6 to 5.1 nM. It is filed as biochemical. On the procedure: If a compound acts as a dimerization inhibitor, the Zhang-Poorman plot gives a line with a slope similar to that obtained for the uninhibited control but with a different intercept; active-site inhibitors yield different slopes compared with the uninhibited control. For this assay, HIV-1 protease was used at concentrations from 0.6 to 5.1 nM. Substrate solutions were diluted to ¼ solution from the original solution, and then used for the kinetic assay. HIV-1 protease (40 μL) was incubated with or without an inhibitor (10 μL) at the desired concentration for 15 min at 25° C. The diluted substrate solution (50 μL) was added to the incubated solution. Fluorescence was monitored for 15 min at 30° C. in a fluorescence microplate reader (BioTek) at Ex/Em=340/490 nm for C-protected inhibitors, and Ex/Em=490/520 nm for deprotected inhibitors.
Slopes for 1lai-H (8.2±0.6) and 1fla-H (9.3±1.2) compared with uninhibited HIV-1 (9.0±0.6) have different y-intercepts (1lai-H y-intercepts 0.19, 1fla-H y-intercepts 0.73, control y-intercepts 0.013). y-Intercepts of uninhibited HIV-1 have different values between experiments for C-protected and deprotected compounds because the substrates used in the assay are different (see above). The results are consistent with 1-H-1-^tBu (side-chains as indicated above) acting as dimerization inhibitors. We note that it has been reported that inhibition of HIV-1 protease activities by dimerization inhibitors is dependent on the time of pre-incubation with the enzyme and inversely dependent on enzyme concentration; consequently, these factors must be standardized if comparing our data with those from different labs.

Test [3] addresses GAPDH (Homo sapiens, UniProt P04406). Particulars: rescue from apoptosis in vitro; cited from earlier work.
Setting [4] is: FIG. 2A, C-protected compounds, Ex/Em=340/490 nm substrate, control 0.42.
[5] abbreviates: FIG. 2A, C-protected compounds, Ex/Em=340/490 nm substrate, uninhibited HIV-1 9.7±0.7.
[6] abbreviates: FIG. 2B, deprotected compounds, Ex/Em=490/520 nm substrate, control 0.013.
[7] abbreviates: FIG. 2B, deprotected compounds, Ex/Em=490/520 nm substrate, uninhibited HIV-1 9.0±0.6.

Structures are written as SMILES.

GAPDH, sequence (P04406 whole entry, species assumed): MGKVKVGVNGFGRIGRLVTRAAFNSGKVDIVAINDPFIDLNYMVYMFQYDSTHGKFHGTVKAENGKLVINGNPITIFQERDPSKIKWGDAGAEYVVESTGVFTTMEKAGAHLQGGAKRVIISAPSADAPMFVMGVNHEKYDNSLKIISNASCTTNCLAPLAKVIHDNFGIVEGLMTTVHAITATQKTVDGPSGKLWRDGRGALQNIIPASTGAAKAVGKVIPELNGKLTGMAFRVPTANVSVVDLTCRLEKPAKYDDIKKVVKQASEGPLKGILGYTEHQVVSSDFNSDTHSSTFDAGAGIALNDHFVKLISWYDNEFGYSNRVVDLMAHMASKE

With `CC(C)C[C@H]1C(N2CC[C@H](N3C(=O)C=C(OC(C)(C)C)[C@@H]3C)C2)=CC(=O)N1[C@H]1CCN(C2=CC(=O)N[C@H]2Cc2ccccc2)C1` [1fla-^tBu, (S)-1-((S)-1-((S)-2-benzyl-5-oxo-2,5-dihydro-1H-pyrrol-3-yl)pyrrolidin-3-yl)-4-((S)-3-((S)-3-(tert-butoxy)-2-methyl-5-oxo-2,5-dihydro-1H-pyrrol-1-yl)pyrrolidin-1-yl)-5-isobutyl-1H-pyrrol-2(5H)-one], 54.9 ± 6 µM corresponded to half-maximal inhibition in test [1] (IC50). Further, the “y-intercept of Zhang-Poorman plot” value in test [2] (setting [4]) was 1.4. Moreover, the “slope of Zhang-Poorman plot” value in test [2] (setting [5]) came to 9.5±0.6. In addition, in test [2], the Ki – broadly, the dissociation constant of the complex between target and ligand, obtained from inhibition or displacement – is 21 ± 2.1 µM.
Taken in the same sequence, the figures for `CC[C@H](C)[C@H]1C(OC(C)(C)C)=CC(=O)N1[C@H]1CCN(C2=CC(=O)N([C@H]3CCN(C4=CC(=O)N[C@H]4CC(C)C)C3)[C@H]2C)C1` [1lai-^tBu, (S)-4-(tert-butoxy)-5-((S)-sec-butyl)-1-((S)-1-((S)-1-((S)-1-((S)-2-isobutyl-5-oxo-2,5-dihydro-1H-pyrrol-3-yl)pyrrolidin-3-yl)-2-methyl-5-oxo-2,5-dihydro-1H-pyrrol-3-yl)pyrrolidin-3-yl)-1H-pyrrol-2(5H)-one] were 111 ± 18 µM, 2.6, 10.4±1.0 and 19.4 ± 4.1 µM.
Consider `CC(C)C[C@H]1C(OC(C)(C)C)=CC(=O)N1[C@H]1CCN(C2=CC(=O)NC2Cc2ccccc2)C1` (stereo partly drawn) [2fl-^tBu, (5S)-1-((3S)-1-(2-benzyl-5-oxo-2,5-dihydro-1H-pyrrol-3-yl)pyrrolidin-3-yl)-4-(tert-butoxy)-5-isobutyl-1H-pyrrol-2(5H)-one], for which inhibition in test [1] was half-maximal at 516 µM (IC50).
The same measure, in the same setting: as for `CC(C)C[C@@H]1NC(=O)C=C1N1CC[C@H](N2C(=O)C=C(OC(C)(C)C)[C@@H]2C)C1` [2la-^tBu, (5S)-4-(tert-butoxy)-1-((3S)-1-(2-isobutyl-5-oxo-2,5-dihydro-1H-pyrrol-3-yl)pyrrolidin-3-yl)-5-methyl-1H-pyrrol-2(5H)-one], the figure is 176 ± 16 µM.
Regarding `C#CCN(C)CC1=Cc2ccccc2Oc2ccccc21` [CGP3466], the “rescuing effect relative to deprenyl” value in test [3] is recorded as 100 ×.
For the molecule `CC(C)C[C@H]1C(N2CC[C@H](N3C(=O)CC(=O)[C@@H]3C)C2)=CC(=O)N1[C@H]1CCN(C2=CC(=O)N[C@H]2Cc2ccccc2)C1` [Compound 1fla-H], in test [1], the IC50 – broadly, the concentration that gives 50% inhibition – worked out at 46.5 ± 8 µM. The “y-intercept of Zhang-Poorman plot” value in test [2] (setting [6]) came to 0.73. In test [2] (setting [7]), the “slope of Zhang-Poorman plot” value was determined as 9.3±1.2. The Ki in test [2] is 0.93 ± 0.3 µM.
For `CC[C@H](C)[C@H]1C(=O)CC(=O)N1[C@H]1CCN(C2=CC(=O)N([C@H]3CCN(C4=CC(=O)N[C@H]4CC(C)C)C3)[C@H]2C)C1` [Compound 1lai-H, (3′S,5S)-5-((S)-sec-butyl)-1′-((S)-1-((S)-1-((S)-2-Isobutyl-5-oxo-2,5-dihydro-1H-pyrrol-3-yl)pyrrolidin-3-yl)-2-methyl-5-oxo-2,5-dihydro-1H-pyrrol-3-yl)-[1,3′-bipyrrolidine]-2,4-dione] the same measures were 3.7 ± 0.3 µM, 0.19, 8.2±0.6 and 0.38 ± 0.07 µM.
For the molecule `CC(C)C[C@H]1C(=O)CC(=O)N1[C@H]1CCN(C2=CC(=O)N[C@H]2Cc2ccccc2)C1` [Compound 2fl-H, (3′S,5S)-1′-(2-benzyl-5-oxo-2,5-dihydro-1H-pyrrol-3-yl)-5-isobutyl-[1,3′-bipyrrolidine]-2,4-dione], 419 µM corresponded to half-maximal inhibition in test [1] (IC50).
As to `CC(C)C[C@@H]1NC(=O)C=C1N1CC[C@H](N2C(=O)CC(=O)[C@@H]2C)C1` [Compound 2la-H], the “inhibition of HIV-1 protease” value in test [1] (FRET assay, result in words) is “did not show any inhibition”.
With `CC[C@H](C)C1C(=O)CC(=O)N1[C@H]1CCN(C2=CC(=O)N[C@H]2CC(C)C)C1` (stereo partly drawn) [Compound 2li-H], half-maximal inhibition in test [1] (IC50) was put at 623 µM.
In test [1], `CC(C)C[C@@H]1NC(=O)C=C1N1CC[C@H](N2C(=O)C=C(NCCOCCOCCNC3=CC(=O)N([C@H]4CCN(C5=CC(=O)N[C@H]5CC(C)C)C4)[C@H]3C)[C@@H]2C)C1` [Compound 13] came in with an IC50 of 84.4 ± 10 µM. In test [1] (comparison of IC50 values), the “inhibition of HIV-1 protease relative to 2la-^tBu” value was “two times better inhibition”.
